According to PMC7421900, “Structural, in silico, and functional analysis of a Disabled-2-derived peptide for recognition of sulfatides” (Scientific Reports, 2020):
Changes are numbered by the printed parent chain.

How the values were obtained:
[1] = molecular target: T1, Dab2 SBP (Homo sapiens, UniProt P98082, Y38A); experiment: SPR, L1 sensorchip, sulfatide liposomes captured; assay type: binding; details: apparent KD; peptide 1-80 µM over 100-nm DPPC:DPPE:cholesterol:sulfatide (1:1:1:4) liposomes; pH 7.4, 100 mM NaCl, room temperature; brain sulfatides of mixed acyl chains
T1 construct: pGEX6P1; vector residues GPLGS remain at N-terminus of cleaved peptide
T1 sequence (P98082 24-58 Y38A): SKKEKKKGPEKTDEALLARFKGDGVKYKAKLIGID

[2] = molecular target: T2, Dab2 SBP (Homo sapiens, UniProt P98082); experiment: SPR, L1 sensorchip, sulfatide liposomes captured; assay type: binding; details: apparent KD; peptide 1-80 µM over 100-nm DPPC:DPPE:cholesterol:sulfatide (1:1:1:4) liposomes; pH 7.4, 100 mM NaCl, room temperature; brain sulfatides of mixed acyl chains
T2 construct: pGEX6P1; vector residues GPLGS remain at N-terminus of cleaved peptide
T2 sequence (P98082 24-58): T1 sequence (P98082 24-58 Y38A) with A15Y

Kd [1]: 77 ± 6.6 µM
Kd [2]: 49.8 ± 5.4 µM
Substance: sulfatide
